Experimental data as given in PMC3131558, “Plitidepsin Has a Safe Cardiac Profile: A Comprehensive Analysis” (Marine Drugs, 2011).

Experiments:
[1] = system: adult patients with advanced solid tumors or hematological malignancies; assay: Paired ECGs (QTc, heart rate) before and after plitidepsin infusion; type: in vivo, human; conditions: for QTc Pre-infusion / HR Post-Infusion / QTc Post-infusion / HR Pre-Infusion: mean (SD)
Experimental: Selected ECG variables (Bazett’s corrected QT interval (QTc) and heart rate (HR)) were analyzed in patients with paired ECG data (i.e., available before and after plitidepsin infusion, n = 136).
Pharmacokinetic (PK) data available from individual clinical trials (four phase I studies and nine phase II studies; see details in Table 1) and/or simulated data using population PK analyses were correlated with the occurrence of CAEs. In the individual studies, doses ranged from 0.13 to 8.00 mg/m^2, and were administered as 1 h or 24 h infusion weekly, 3 h or 24 h infusion bi-weekly, or 1 h infusion for 5 consecutive days every 3 weeks. To evaluate the potential relationship between blood plitidepsin concentrations and QTc and HR values, a total of 90 patients who had ECGs performed during treatment with plitidepsin and PK data during first infusion were analyzed. The plitidepsin concentration at the time when the ECG had been obtained was calculated using the whole blood plitidepsin concentration at the ECG times in which they were simulated taking the individual Bayesian PK parameters of the final population PK model and considering the real treatment history of each patient. In total, 411 patients and 5585 plitidepsin concentration measurements (including 2900 blood and 2685 plasma concentrations) were pooled in the population PK analysis. An open, 3-compartment disposition model with linear elimination and linear distribution from the central compartment to peripheral compartments was used to describe the PK of plitidepsin in plasma. Between and within subject variabilities were assumed to be log-normally distributed. PK exposure parameters (maximum concentration in plasma (Cmax) and area under the curve (AUC) from day 0 to day 28) and other dose-independent PK parameters (clearance, half-life, etc.) were used to evaluate the relationship between patient PK characteristics and the appearance of CAEs. For the statistical analysis of the relationship between the exposure parameters and the development or not of a CAE, a logistic regression model was used to analyze the incidence of the event.

[2] = Population PK exposure (Cmax, AUC0-28day) by CAE category; type: in vivo, human; conditions: whole blood, simulated, mean (SD)
Purkinje fibers = conditions: preclinical, in vitro; cited from earlier work
Source text: (§1) Plitidepsin, a cyclic depsipeptide of marine origin, is an investigational drug currently in clinical development as a single agent as well as in combination with other anticancer agents for the treatment of different solid tumors and hematological malignancies. […] CAE ...

dog = conditions: preclinical; cited from earlier work
Source text: as §1

[3] = system: adult patients with advanced solid tumors or hematological malignancies; assay: Multivariate logistic regression of variables associated with CAEs; type: in vivo, human; conditions: overall multivariate analysis
Source text: To avoid potential bias, candidate variables were explored by univariate analysis regardless of the relationship attributed to the CAE with plitidepsin by the investigators (related, unrelated or unknown). Univariate logistic regression was used to study the relationship between the occurrence of a CAE and categorical and continuous patient and disease characteristics, and other observed toxicities or laboratory abnormalities. Those variables found to be clinically relevant and/or statistically significant (or of borderline significance) in this analysis were further assessed as covariates in a multivariate analysis using logistic regression with stepwise variable selection and multiple correspondence analysis methods.

[4] = All (n = 136 pairs), ECG within 4 h after end of infusion
[5] = Myocardial injury (n = 4 pairs)
[6] = No cardiac event (n = 116 pairs)
[7] = Rhythm abnormalities (n = 18 pairs)
[8] = Other rhythm abnormalities (n = 10)

Question: What does the source list for plitidepsin?
Answer: QTc Pre-infusion ([1]; All (n = 136 pairs), Bazett's corrected): 426.77 (38.78) msec; HR Post-Infusion [1, 4]: 82.46 (13.17) bpm; QTc Post-infusion [1, 4]: 429.28 (40.25) msec; HR Pre-Infusion ([1]; All (n = 136 pairs)): 79.07 (15.33) bpm; HR Post-Infusion ([1]; Cardiac event (n = 20 pairs)): 80.10 (10.87) bpm; HR Pre-Infusion ([1]; Cardiac event (n = 20 pairs)): 74.05 (13.39) bpm; QTc Post-infusion ([1]; Cardiac event (n = 20 pairs)): 442.60 (32.09) msec; QTc Pre-infusion ([1]; Cardiac event (n = 20 pairs)): 437.75 (28.65) msec; HR Post-Infusion [1, 5]: 77.75 (12.55) bpm; HR Pre-Infusion [1, 5]: 68.75 (10.34) bpm; QTc Post-infusion [1, 5]: 437.50 (15.20) msec; QTc Pre-infusion [1, 5]: 429.00 (29.15) msec; HR Post-Infusion [1, 6]: 82.86 (13.53) bpm; HR Pre-Infusion [1, 6]: 79.92 (15.53) bpm; QTc Post-infusion [1, 6]: 426.98 (41.18) msec; QTc Pre-infusion [1, 6]: 424.88 (40.06) msec; HR Post-Infusion [1, 7]: 80.44 (11.30) bpm; HR Pre-Infusion [1, 7]: 75.44 (13.39) bpm; QTc Post-infusion [1, 7]: 442.67 (33.79) msec; QTc Pre-infusion [1, 7]: 439.44 (29.79) msec; Relationship between whole blood plitidepsin concentrations and QTc interval ([1]; all ECGs during treatment (263 ECGs), simulated concentrations): No apparent relationship; AUC0–28day ([2]; Cardiac Adverse Event (n = 36)): 3236 (2955) h·ng/mL; Cmax ([2]; Cardiac Adverse Event (n = 36)): 61.0 (27.9) ng/mL; Cmax ([2]; Irregular supraventricular tachycardia (n = 12)): 63.7 (34.6) ng/mL; AUC0–28day ([2]; Myocardial Injury (n = 11)): 4077 (3653) h·ng/mL; Cmax ([2]; Myocardial Injury (n = 11)): 69.5 (28.2) ng/mL; Cmax ([2]; Other myocardial injury (n = 4)): 64.7 (30.6) ng/mL; AUC0–28day [2, 8]: 2064 (1449) h·ng/mL; Cmax [2, 8]: 56.8 (26.2) ng/mL; Cmax ([2]; Possible ischemic related (n = 7)): 72.2 (28.8) ng/mL; Cmax ([2]; Regular supraventricular tachycardia (n = 6)): 57.2 (23.1) ng/mL; Cmax ([2]; Rhythm Abnormalities (n = 25)): 61.5 (29.8) ng/mL; Cardiotoxic profile in study using Purkinje fibers (Purkinje fibers): did not show a cardiotoxic profile; Cardiotoxic profile in in vivo study in the dog (dog): did not show a cardiotoxic profile; OR for CAE: Tumor type, Prostate or pancreatic cancer ([3]; p = 0.0017): 4.217; OR for CAE: Cardiac risk and relevant concomitant medication at baseline, Presence ([3]; p = 0.0072): 3.034; OR for CAE: Hypokalemia (worst per patient), Grade ≥ 2 ([3]; p = 0.0095): 3.851; OR for CAE: Myalgia (at baseline), Presence ([3]; p = 0.0140): 5.015; OR for CAE: Hemoglobin (worst per patient), <10 g/dL ([3]; p = 0.0208): 2.195
